Reference: US20240208984A1, “BIVALENT LIGANDS TO UNDERSTAND DIMERIZATION OF THE MU OPIOID RECEPTOR AND THE CHEMOKINE RECEPTOR CCR5 IN NEUROLOGICAL DISORDERS” (priority 2021, published 2024)

Assays:
CCR5 = CCR5 (Homo sapiens (Human), UniProt P51681); test: Calcium mobilization assay in HOS-CCR5 cells; format: cell-based
Protocol: We then conducted the calcium mobilization assay to further test both the agonist and antagonist properties of the newly synthesized compounds in the HOS-CCR5 (stably transfected for the expression of CCR5) cells using our reported protocol, as calcium mobilization is associated with the activation of CCR5. Prior to the assay, the HOS-CCR5 cells were transiently transfected with a Gqi5 to boost calcium signaling levels.
In the antagonism assay, these compounds were assessed for their ability to inhibit CCL5-stimulated Ca^2+ mobilization.
HOS-CCR5 cells were transfected with Gqi5 pcDNA16 using Lipofectamine 2000 (Invitrogen) according to the manufacturer's recommended procedure and maintained in RPMI 1640 supplemented with 10% fetal bovine serum, 100 μg/mL penicillin, 100 μg/mL streptomycin, and 1 mg/mL G418 at 37° C. and 5% C02. 48 h after transfection, a total of 2,500,000 cells were spun down and brought back up in 8 mL of 50:1 HBSS: HEPES assay buffer. Cells were then plated at 25,000 cells per well into a clear bottom, black 96-well plate (Greiner Bio-one) and 50 μL of Fluo4 loading buffer [40 μL of 2 μM Fluo4-AM (Invitrogen), 100 μL of 2.5 mM probenecid, in 5 mL of assay buffer] was added to bring the volume up to 130 μL. After incubating for 45 min, 50 μL of varying concentrations of tested compounds were added and the plate was incubated for an additional 15 min. Plates were then read on a FlexStation3 microplate reader (Molecular Devices) at 494/516 ex/em for a total of 120 s. After 16 s of reading, 20 μL of 200 nM CCL5 (Biosource) in assay buffer, or assay buffer alone, was added to the wells to bring the total volume up to 200 μL. The changes in calcium mobilization were monitored and peak height values were obtained using SoftMaxPro software (Molecular Devices). Non-linear regression curves and IC50 values were generated using GraphPad Prism 8.0.1 (GraphPad Software, San Diego, CA). All experiments were repeated at least three times.

[1] = test system: HIV-1BaL Env-pseudotyped Luc-expressing virus; test: HIV-1-Luc infection assay in PBMCs; format: cell-based; conditions: non-stimulated PBMCs; 1000 nM
From the text: Peripheral blood mononuclear cells (PBMCs) include large numbers of CCR5-expressing leukocytes and are susceptible to infection by R5-tropic HIV-1 strains.
Isolated human PBMCs were obtained commercially from the New York Blood Bank and exempt from Human Subjects criteria (NIH Exemption 4: website located at nih.gov/sites/default/files/exemption_infographic_v7_508c-3-21-19.pdf). The adult PBMCs are publicly available and no information or identifiers are provided so subjects cannot be identified. […] After 3 days in culture, supernatants were harvested, floating cells removed by centrifugation, HIV-1 p24 Ag measured by commercial ELISA (Zeptometrix), and viral aliquots stored at −80° C. […]
PBMCs were isolated from buffy coats of healthy blood donors by centrifugation in Ficoll gradient (MP Biomedicals). Viable cells, determined by Trypan blue exclusion, were stimulated, or not, for 2 days with 5 μg/mL PHA (Sigma). […]
After 2 days of infection, 100 μL of 2× Luciferase Substrate containing lysing buffer (BRIGHT-GLO™ Luciferase Assay System, Promega) were added per well, plate was agitated for 2 mins (700 rpm) and Luminescence was evaluated using a PHERASTAR® FS plate reader (BMG Labtech).

Sequence of CCR5 (P51681 whole entry): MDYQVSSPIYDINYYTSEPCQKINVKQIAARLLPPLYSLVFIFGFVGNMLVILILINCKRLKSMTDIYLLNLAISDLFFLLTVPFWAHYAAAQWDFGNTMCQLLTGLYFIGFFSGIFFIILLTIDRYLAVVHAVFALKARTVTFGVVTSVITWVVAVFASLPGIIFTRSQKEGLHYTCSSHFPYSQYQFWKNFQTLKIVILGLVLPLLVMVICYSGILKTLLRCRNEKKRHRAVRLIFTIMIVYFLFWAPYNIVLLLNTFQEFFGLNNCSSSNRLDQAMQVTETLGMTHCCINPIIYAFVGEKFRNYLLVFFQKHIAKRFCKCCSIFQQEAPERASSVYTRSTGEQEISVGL

## CC(C)c1nnc(CCNC(=O)COCC(=O)NCCCCCCCNC(=O)COCC(=O)NC2CC[C@@]3(O)[C@H]4Cc5ccc(O)c6c5[C@@]3(CCN4CC3CC3)[C@H]2O6)n1C1CC2CCC(C1)N2CC[C@H](NC(=O)C1CCC(F)(F)CC1)c1ccccc1 (stereo partly drawn) [VZMC013]
CCR5; HOS-CCR5 transfected with Gqi5, mean ± SEM, read-out: Inhibition of CCL5-stimulated Intracellular Ca2+ Mobilization IC50
  IC50: 57.5 nM
CCR5; agonist mode, range of concentrations tested
  CCR5 activation (agonism) in Ca2+ mobilization: none of these compounds appeared to activate CCR5
[1]
  Inhibition of HIV-1-Luc infectivity: nearly complete blockade
